This note sets out measurements from patent US6815443B2, “5-Amino-1-pentene-3-ol substituted derivatives” (Gruenenthal GmbH, priority 2000, dated 2004).

The structures appear in SMILES notation.

For one assay, the system named is gabapentin binding site. Briefly: gabapentin binding assay (displacement of gabapentin from its binding site).
Conditions: not given
How it is done: Gabapentin is used in the binding assay in order to investigate the binding and affinities of the selected compounds. The affinity of the compounds according to the invention is measured via the displacement of gabapentin from its binding site.
For `COc1ccc(C2(O)C(=Cc3cccc(OC)c3)CCCCC2CN(C)C)cc1` (centres unmarked) [Example 369, 2-dimethylaminomethyl-7-(3-methoxybenzylidene)-1-(4-methoxyphenyl)-cycloheptanol], the “% Inhibition gabapentin, 10 μmole” value is 43%.

For `COc1cccc(CC(O)(C(C)=Cc2ccc(F)cc2)C(C)CN(C)C)c1` (centres unmarked) [Example 184, 5-dimethylamino-1-(4-fluorophenyl)-3-(3-methoxybenzyl)-2,4-dimethyl-pent-1-en-3-ol], the “% Inhibition gabapentin, 10 μmole” value is on record as 47%. As to `CC(=Cc1ccccc1)C(O)(Cc1cccc(C)c1)C(C)CN(C)C` (centres unmarked) [Example 152, 5-dimethylamino-2,4-dimethyl-3-(3-methylbenzyl)-1-phenyl-pent-1-en-3-ol], the “% Inhibition gabapentin, 10 μmole” value was determined as 30%. Consider `COc1cccc(CC(O)(C(C)=Cc2ccc(Cl)cc2)C(C)CN(C)C)c1` (centres unmarked) [Example 223, 1-(4-chlorophenyl)-5-dimethylamino-3-(3-methoxybenzyl)-2,4-dimethyl-pent-1-en-3-ol], for which the “% Inhibition gabapentin, 10 μmole” value came out at 40%. The same measure, in the same setting: to `CC(=Cc1ccccc1)C(O)(c1ccccc1)C(C)CN(C)C` (centres unmarked) [Example 120, 5-dimethylamino-2,4-dimethyl-1,3-diphenyl-pent-1-en-3-ol] belongs 37%; to `CC(=Cc1ccccc1)C(O)(Cc1cccc(Cl)c1)C(C)CN(C)C` (centres unmarked) [Example 156, 3-(3-chlorobenzyl)-5-dimethylamino-2,4-dimethyl-1-phenyl-pent-1-en-3-ol], 46%. Same read-out and setting: to `COc1cccc(C=C2CCCCC(CN(C)C)C2(O)c2ccc(Cl)cc2)c1` (centres unmarked) [Example 353, 1-(4-chlorophenyl)-2-dimethylaminomethyl-7-(3-methoxy-benzylidene)-cycloheptanol] belongs 44%.

The test system of a further assay is phenylquinone-induced writhing in male NMRI mice. Description: phenylquinone-induced writhing test in mice. Type of assay: in vivo. The settings on record: 2.15 mg/kg. How it is done:
The investigation of the analgesic efficacy was carried out according to the phenylquinone-induced writhing test in mice (as modified by I. C. Hendershot and J. Forsaith J. Pharmacol. Exp. Ther. 1959 125, 237-240). For this purpose male NMRI mice weighing 25 to 30 g were used. Groups of 10 animals per substance dose received, 10 minutes after intravenous administration of the test substances, 0.3 ml/mouse of a 0.02% aqueous solution of phenylquinone (phenyl benzoquinone, from Sigma, Deisenhofen; solution prepared by addition of 5% of ethanol and storage in a water bath at 45° C.) applied intraperitoneally. The animals were placed individually in observation cages. The number of pain-induced stretching movements (so-called writhing reactions=contortion of the body accompanied by stretching of the rear extremities) was counted using a push-button counter 5 to 20 minutes after administration of the phenylquinone. Animals that had received only physiological saline served as controls. The number of responding animals was determined for some of the examples.
In general terms: In writhing tests, fewer writhes than in controls are read as antinociception.
As for `CN(C)CC1CCCCC(=Cc2ccccc2)C1(O)c1cccc(O)c1.Cl` (centres unmarked) [Example 407, 2-benzylidene-7-dimethylaminomethyl-1-(3-hydroxyphenyl)-cycloheptanol, hydrochloride], the “Responding Animals/Control Animals (Writhing IV)” value is 6/10 (2.15 mg/kg).

The same assay, now with this note: 10 mg/kg.
For the molecule `CC(=Cc1ccccc1)C(O)(c1cccc(O)c1)C(C)CCN(C)C.Cl` (centres unmarked) [Example 410, 3-[1-(2-dimethylaminomethyl-1-methylethyl)-1-hydroxy-2-methyl-3-phenyl-allyl]-phenol, hydrochloride], the “Responding Animals/Control Animals (Writhing IV)” value is 5/10 (10 mg/kg).

For the molecule `COc1cccc(C2(O)C(=Cc3ccccc3)CCCCC2CN(C)C)c1.Cl` (centres unmarked) [Example 409, 2-benzylidene-7-dimethylaminomethyl-1-(3-methoxyphenyl)-cycloheptanol, hydrochloride], the “Responding Animals/Control Animals (Writhing IV)” value is listed as 5/10 (10 mg/kg). Regarding `CC(=Cc1ccccc1)C(O)(Cc1ccc(Cl)cc1)C(C)CN(C)C.Cl` (centres unmarked) [Example 411, 3-(4-chlorobenzyl)-5-dimethylamino-2,4-dimethyl-1-phenyl-pent-1-en-3-ol, hydrochloride], the “Responding Animals/Control Animals (Writhing IV)” value is on record as 3/10 (10 mg/kg). With `CN(C)CC1CCCC(=Cc2ccccc2)C1(O)c1cccc(O)c1.Cl` (centres unmarked) [Example 413, 3-(2-benzylidene-6-dimethylaminomethyl-1-hydroxycyclohexyl)-phenol, hydrochloride], the “Responding Animals/Control Animals (Writhing IV)” value is 4/10 (10 mg/kg).

In the case of `COc1cccc(C(O)(C(C)=Cc2ccccc2)C(C)CN(C)C)c1.Cl` (centres unmarked) [Example 412, 5-dimethylamino-3-(3-methoxyphenyl)-2,4-dimethyl-1-phenyl-pent-1-en-3-ol, hydrochloride], the “Responding Animals/Control Animals (Writhing IV)” value is 9/10 (10 mg/kg). Still for that read-out and setting: to `COc1cccc(C=C2CCCCC(CN(C)C)C2(O)c2cccc(O)c2)c1.Cl` (centres unmarked) [Example 408, 2-dimethylaminomethyl-1-(3-hydroxyphenyl)-7-(3-methoxy-benzylidene)-cycloheptanol, hydrochloride] belongs 9/10 (10 mg/kg).
